Experimental data: patent US20250186408A1, “TREATMENT OF PHARMACORESISTANT EPILEPSY” (Katholieke Universiteit Leuven, priority 2021, published 2025)
Read-outs that look alike come from different tables or passages of the source.

Experiments:
EDNRA = target: T1, EDNRA (Homo sapiens, UniProt P25101); assay: Calcium Flux EDNRA Antagonist; assay type: cell-based; settings: for IC50: read-out: RC50, result type IC50; for Emax: read-out: Max response
T1 sequence (P25101 21-427): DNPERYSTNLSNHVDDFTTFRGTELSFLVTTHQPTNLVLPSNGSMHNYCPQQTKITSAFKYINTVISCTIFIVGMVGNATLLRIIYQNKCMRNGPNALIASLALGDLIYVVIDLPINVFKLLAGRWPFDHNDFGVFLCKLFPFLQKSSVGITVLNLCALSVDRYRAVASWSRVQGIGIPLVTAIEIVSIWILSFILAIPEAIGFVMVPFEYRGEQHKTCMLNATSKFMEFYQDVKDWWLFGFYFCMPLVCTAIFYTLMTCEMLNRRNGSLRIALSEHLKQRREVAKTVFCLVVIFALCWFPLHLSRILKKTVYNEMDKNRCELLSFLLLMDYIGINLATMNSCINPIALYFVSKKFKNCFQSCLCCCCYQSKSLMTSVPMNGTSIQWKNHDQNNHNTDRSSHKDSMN
Experimental: (≤0.2% DMSO concentration). Assays were performed in 1× dye loading buffer consisting of 1× Dye (DiscoverX, Calcium No Wash^PLUS kit, Catalog No. 90-0091), 1× Additive A and 2.5 mM Probenecid in HBSS/20 mM HEPES. Probenecid was prepared fresh. Prior to testing, media was aspirated from cells and replaced with 25 μL dye loading buffer. Cells were incubated for 45 min at 37° C. and then 20 min at RT. For agonist determination, 25 μL of 2× compound in HBSS/20 mM HEPES was added using a FLIPR Tetra (MDS). […] 25 μL of 2× sample was added and cells were incubated for 30 min at RT in the dark to equilibrate plate temperature. After incubation, antagonist determination was initiated by addition of 25 μL of 1× compound with 3×EC80 agonist using FLIPR. For both agonist and antagonist formats, activity was measure on a FLIPR Tetra (MDS). Calcium mobilization was monitored for 2 min with a 5 sec baseline read.
FLIPR read—Area under the curve, was calculated for the entire 2 min read.

NAV1.5 = NAV1.5 (Homo sapiens, UniProt Q14524); assay: Ion Channel NAV1.5 Blocker; assay type: cell-based; settings: for Emax at 30 min: Ion Channel NAV1.5 Blocker, read-out: Max response
NMDAR (1A/2B) = NMDAR (1A/2B) (Homo sapiens, UniProt Q05586+Q13224); assay: Ion Channel NMDAR (1A/2B) Blocker; assay type: cell-based; settings: for Emax: Ion Channel NMDAR (1A/2B) Blocker, read-out: Max response
CAV1.2 = CAV1.2 (Homo sapiens, UniProt Q13936); assay: Ion Channel CAV1.2 Blocker; assay type: cell-based
VEGFR2 = target: T2, VEGFR2 (Homo sapiens, UniProt P35968); assay: Binding (KINOMEscan) VEGFR2 Inhibitor; settings: for IC50: read-out: RC50, result type IC50; for Emax: read-out: Max response
T2 construct: purchased Eurofins DiscoverX Corporation 87-1003DR; host or cells: E. coli BL21-derived host (T7 phage) or HEK-293
Experimental: For most assays, kinase-tagged T7 phage strains were grown in parallel in 24-well blocks in an E. coli host derived from the BL21 strain. E. coli were grown to log-phase and infected with T7 phage from a frozen stock (multiplicity of infection=0.4) and incubated with shaking at 32° C. until lysis (90-150 min). The lysates were centrifuged (6,000×g) and filtered (0.2 μm) to remove cell debris. The remaining kinases were produced in HEK-293 cells and subsequently tagged with DNA for qPCR detection. Streptavidin-coated magnetic beads were treated with biotinylated small molecule ligands for 30 min at RT to generate affinity resins for kinase assays. The liganded beads were blocked with excess biotin and washed with blocking buffer (SeaBlock (Pierce), 1% BSA, 0.05% Tween 20, 1 mM DTT) to remove unbound ligand and to reduce non-specific phage binding. […] All reactions were performed in polypropylene 384-well plates in a final volume of 0.02 mL. […] The beads were then re-suspended in elution buffer (1×PBS, 0.05% Tween 20, 0.5 μM non-biotinylated affinity ligand) and incubated at RT with shaking for 30 min. The kinase concentration in the eluates was measured by qPCR.
The kinase concentration in the eluates was measured by qPCR. qPCR reactions were assembled by adding 2.5 μL of kinase eluate to 7.5 μL of qPCR master mix containing 0.15 μM amplicon primers and 0.15 μM amplicon probe. The qPCR protocol consisted of a 10 min hot start at 95° C., followed by 35 cycles of 95° C. for 15 sec, 60° C. for 1 min.
Binding constants (Kds) were calculated with a standard dose-response curve using the Hill equation: […]

DRD1 = DRD1 (Homo sapiens, UniProt P21728); assay: cAMP DRD1 Antagonist; settings: for Emax: read-out: Max response
Sequence of DRD1 (P21728 whole entry): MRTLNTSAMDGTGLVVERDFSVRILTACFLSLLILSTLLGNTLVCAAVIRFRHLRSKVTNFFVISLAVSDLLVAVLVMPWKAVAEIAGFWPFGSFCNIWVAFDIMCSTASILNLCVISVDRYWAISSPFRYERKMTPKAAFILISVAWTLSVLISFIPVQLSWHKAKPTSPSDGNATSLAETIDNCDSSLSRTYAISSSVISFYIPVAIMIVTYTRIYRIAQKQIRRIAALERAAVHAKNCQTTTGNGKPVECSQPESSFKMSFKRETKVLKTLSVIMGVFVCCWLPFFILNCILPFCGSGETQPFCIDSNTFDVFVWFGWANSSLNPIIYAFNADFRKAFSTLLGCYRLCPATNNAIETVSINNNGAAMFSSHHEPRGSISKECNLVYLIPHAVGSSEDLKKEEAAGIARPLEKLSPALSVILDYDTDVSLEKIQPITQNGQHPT
Experimental: In vitro pharmacological profiling of compounds was done against 78 functional assays for 47 common off-targets (30) by Eurofins DiscoverX Corporation (Fremont, CA, USA) using their SAFETYscan E/IC50 ELECT service (Cat Ref 87-1003DR, Safety47 Panel Dose Response). […] Compounds were tested in a range of 10 concentrations, following a 3-fold serial dilution, starting from 10 μM.
cAMP Hunter cell lines were expanded from freezer stocks. Prior to testing, cells were seeded in a total volume of 20 μL into white walled 384-well microplates and incubated at 37° C. cAMP modulation was determined using the DiscoverX HitHunter cAMP XS+ assay. For Gs agonist determination, cells were incubated with sample to induce response. For Gi agonist determination, cells were incubated with sample in the presence of EC80 forskolin to induce response. For both conditions, media was aspirated from cells and replaced with 15 μL 2:1 HBSS/10 mM HEPES:cAMP XS+ Ab reagent. Intermediate dilution of sample stocks was performed to generate 4× sample in assay buffer (containing 4×EC80 forskolin in the case of antagonist determination). 5 μL of 4× sample was added to cells and incubated at 37° C. or room temperature (RT) for 30 or 60 min. Final assay vehicle concentration was 1%. For antagonist determination, cells were pre-incubated with sample followed by agonist challenge at the EC80 concentration. Media was aspirated from cells and replaced with 10 μL 1:1 HBSS/HEPES:cAMP XS+ Ab reagent. 5 μL of 4× compound was added to the cells and incubated at 37° C. or RT for 30 min. 5 μL of 4×EC80 agonist was added to the cells and incubated at 37° C. or RT for 30 or 60 min. For Gi coupled GPCRs, EC80 forskolin was included. […] Microplates were read following signal generation with a PerkinElmer Envision™ instrument for chemiluminescent signal detection. Compound activity was analyzed using CBIS data analysis suite (ChemInnovation, CA).

Sequence of NMDAR (1A/2B) (Q13224 27-1484, other chains not shown): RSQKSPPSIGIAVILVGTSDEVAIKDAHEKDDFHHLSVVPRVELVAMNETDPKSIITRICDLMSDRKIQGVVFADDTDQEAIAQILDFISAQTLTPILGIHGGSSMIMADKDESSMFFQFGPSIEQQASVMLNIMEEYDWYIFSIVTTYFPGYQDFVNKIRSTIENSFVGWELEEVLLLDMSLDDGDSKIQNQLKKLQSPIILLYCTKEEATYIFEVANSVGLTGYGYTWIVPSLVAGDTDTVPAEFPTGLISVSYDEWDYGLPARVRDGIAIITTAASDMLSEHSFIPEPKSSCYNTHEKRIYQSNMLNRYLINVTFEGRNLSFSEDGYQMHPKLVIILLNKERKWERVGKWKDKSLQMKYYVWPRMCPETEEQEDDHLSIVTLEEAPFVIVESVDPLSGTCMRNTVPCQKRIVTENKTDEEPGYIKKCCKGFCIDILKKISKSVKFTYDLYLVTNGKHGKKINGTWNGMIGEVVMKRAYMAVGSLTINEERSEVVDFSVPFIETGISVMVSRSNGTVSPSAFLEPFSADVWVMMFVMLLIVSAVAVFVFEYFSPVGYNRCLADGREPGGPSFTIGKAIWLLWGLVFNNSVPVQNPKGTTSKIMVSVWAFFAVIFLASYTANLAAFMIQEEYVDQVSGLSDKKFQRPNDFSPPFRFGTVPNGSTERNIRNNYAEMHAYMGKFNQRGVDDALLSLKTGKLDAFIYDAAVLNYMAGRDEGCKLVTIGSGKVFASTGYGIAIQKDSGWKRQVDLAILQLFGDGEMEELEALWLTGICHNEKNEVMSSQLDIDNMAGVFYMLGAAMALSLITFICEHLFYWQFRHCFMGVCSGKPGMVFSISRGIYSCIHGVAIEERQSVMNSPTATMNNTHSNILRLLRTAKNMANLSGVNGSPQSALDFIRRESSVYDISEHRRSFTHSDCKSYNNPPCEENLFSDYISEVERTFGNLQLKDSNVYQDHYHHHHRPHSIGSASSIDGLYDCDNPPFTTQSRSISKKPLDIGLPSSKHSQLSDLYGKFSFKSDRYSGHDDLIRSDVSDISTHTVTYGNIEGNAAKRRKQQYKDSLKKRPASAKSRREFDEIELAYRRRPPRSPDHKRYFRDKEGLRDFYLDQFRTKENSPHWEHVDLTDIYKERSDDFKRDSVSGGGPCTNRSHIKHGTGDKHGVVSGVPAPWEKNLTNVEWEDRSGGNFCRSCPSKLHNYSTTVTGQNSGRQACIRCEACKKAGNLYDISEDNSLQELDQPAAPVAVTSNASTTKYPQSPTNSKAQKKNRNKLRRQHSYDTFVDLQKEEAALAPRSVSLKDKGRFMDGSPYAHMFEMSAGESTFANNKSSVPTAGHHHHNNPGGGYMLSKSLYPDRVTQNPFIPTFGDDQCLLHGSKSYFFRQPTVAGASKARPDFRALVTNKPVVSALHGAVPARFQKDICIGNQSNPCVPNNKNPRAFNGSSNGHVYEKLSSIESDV
T2 sequence (P35968 20-1356): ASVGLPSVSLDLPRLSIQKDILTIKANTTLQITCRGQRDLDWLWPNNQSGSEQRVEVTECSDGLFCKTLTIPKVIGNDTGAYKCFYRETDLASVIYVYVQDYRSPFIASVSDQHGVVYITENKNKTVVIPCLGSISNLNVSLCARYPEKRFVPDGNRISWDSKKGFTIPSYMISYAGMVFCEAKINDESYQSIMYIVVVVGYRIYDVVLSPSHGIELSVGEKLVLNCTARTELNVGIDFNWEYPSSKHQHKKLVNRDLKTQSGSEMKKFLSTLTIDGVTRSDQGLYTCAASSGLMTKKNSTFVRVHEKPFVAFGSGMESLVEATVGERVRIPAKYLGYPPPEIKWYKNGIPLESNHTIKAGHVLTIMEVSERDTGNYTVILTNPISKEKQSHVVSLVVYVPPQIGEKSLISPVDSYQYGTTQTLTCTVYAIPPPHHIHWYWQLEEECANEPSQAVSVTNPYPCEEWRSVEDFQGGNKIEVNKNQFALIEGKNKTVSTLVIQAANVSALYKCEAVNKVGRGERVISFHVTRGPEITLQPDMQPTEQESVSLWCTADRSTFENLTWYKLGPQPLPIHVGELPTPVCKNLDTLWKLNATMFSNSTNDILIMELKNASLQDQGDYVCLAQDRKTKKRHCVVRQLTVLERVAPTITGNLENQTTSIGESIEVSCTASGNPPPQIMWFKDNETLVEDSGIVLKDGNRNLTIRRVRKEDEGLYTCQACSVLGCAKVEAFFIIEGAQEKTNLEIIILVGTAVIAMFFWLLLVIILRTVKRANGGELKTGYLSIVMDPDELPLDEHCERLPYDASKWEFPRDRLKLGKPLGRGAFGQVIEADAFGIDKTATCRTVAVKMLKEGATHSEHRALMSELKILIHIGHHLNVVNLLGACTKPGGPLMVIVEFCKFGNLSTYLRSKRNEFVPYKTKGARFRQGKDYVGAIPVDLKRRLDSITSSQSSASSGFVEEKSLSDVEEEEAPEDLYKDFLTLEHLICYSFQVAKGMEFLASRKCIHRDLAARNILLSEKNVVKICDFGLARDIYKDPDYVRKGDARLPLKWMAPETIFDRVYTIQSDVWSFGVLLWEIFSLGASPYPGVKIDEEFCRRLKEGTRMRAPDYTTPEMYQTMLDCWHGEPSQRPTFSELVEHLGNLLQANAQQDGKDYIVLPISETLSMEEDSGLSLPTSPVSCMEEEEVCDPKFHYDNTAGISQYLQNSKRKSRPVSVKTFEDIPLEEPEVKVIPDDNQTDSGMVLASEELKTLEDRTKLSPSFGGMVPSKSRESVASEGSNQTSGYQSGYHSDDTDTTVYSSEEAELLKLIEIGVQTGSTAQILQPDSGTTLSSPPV

SMILES	IC50 (EDNRA; Calcium Flux EDNRA Antagonist) [µM]	Emax (EDNRA) [%]	IC50 (NAV1.5) [µM]	Emax at 30 min (NAV1.5) [%]	IC50 (NMDAR (1A/2B)) [µM]	Emax (NMDAR (1A/2B)) [%]	IC50 (CAV1.2) [µM]	Emax at 30 min (CAV1.2; Ion Channel CAV1.2 Blocker, read-out: Max response) [%]	IC50 (VEGFR2; Binding VEGFR2 Inhibitor) [µM]	Emax (VEGFR2) [%]	IC50 (DRD1) [µM]	Emax (DRD1) [%]	Emax (EDNRA; Calcium Flux EDNRA Antagonist) [%]	Emax at 30 min (CAV1.2) [%]	Emax (VEGFR2; Binding VEGFR2 Inhibitor) [%]
CC(C)(C)c1ccc(C#CC(O)c2ccccc2)cc1 (racemic) [Compound 3.3, rac-3-(4-(tert-butyl)phenyl)-1-phenylprop-2-yn-1-ol]	> 10	0	> 10	59.9	> 10	0	> 10	7.2	> 10	0	> 10	2.7	–	–	–
Clc1cccc(C#Cc2n[nH]c3ncccc23)c1 [Compound 10.1, 3-((3-chlorophenyl)ethynyl)-1H-pyrazolo[3,4-b]pyridine]	> 10	–	> 10	21.5	> 10	0	> 10	–	> 10	–	> 10	17.2	0	0	5.4
